Measured values taken from patent publication US11813339B2, “Method of use for therapeutic bone agents” (IGL Pharma, Inc., priority 2017, dated 2023).
Read-outs that look alike come from different tables or passages of the source.

Experiments:
tumor = assay: Ascending dose trial in dogs (MTD); type: in vivo; settings: for maximum tolerated dose: dogs
Text: The maximum tolerated dose is 1.75-2.0 mCi/kg; whereas for Sm-153-EDTMP the maximum tolerated dose was 1.0 mCi/kg. Stable or improved indices were experienced by 7 of 12 dogs.

osteosarcoma = assay: Treatment of dogs with osteosarcoma with LSA Sm-153-DOTMP; type: in vivo
Protocol: Seven dogs with osteosarcoma were treated with the Sm-153-DOTMP made from LSA Sm-153 of Example 1 at 1 mCi/kg.

[1] = tested on: prostate and breast bone metastases; settings: cited from earlier work; for long-lived impurities (Eu isotopes) in patients on multiple doses: high-resolution gamma spectroscopy whole body counters
[2] = Residual activity in bone cancer patients after repeated doses, NaI crystal detection; type: in vivo; settings: 30 mCi doses, after receiving 7 doses (of 10); activity due to long-lived radionuclidic impurities
Text: The Sm-153 prepared as in Example A was used to prepare doses of Sm-153-EDTMP. These doses were used to treat patients suffering from bone cancer. Patients were repeatedly treated (10 times) with 30 mCi of Sm-153-EDTMP as prepared in this example. The first 5 doses were given at 3 month intervals, and the second five doses given at 6 month intervals. After the decay of Sm-153, a NaI crystal was used to detect the amount of residual activity in the patients. […] The activity was due to long-lived radionuclidic impurities created during the target irradiation process.

[3] = about 550 patients, repeated 30 mCi doses

In the case of “Sm-153 1,4,7,10-tetraazacyclododecanetetramethylenephosphonic acid [LSA Sm-153-DOTMP]”, the “stable or improved indices” value (tumor; ascending dose trial) is reported as 7 of 12, the uptake in tumor (tumor; ascending dose trial of 13 dogs starting at 1.5 mCi/kg) is reported as “uptake in tumor for all seven dogs tested” and the maximum tolerated dose (tumor) is reported as 1.75-2.0 mCi/kg. For the same substance, the “myelosuppression relative to similar dogs treated with 1 mCi/kg of HSA Sm-153-EDTMP” value (osteosarcoma; evidenced from the nadir in platelets and neutrophils) was “about one half” and the “uptake in the tumor” value (osteosarcoma; seven dogs with osteosarcoma, 1 mCi/kg) was “uptake in the tumor for all dogs”.
For “Sm-153-ethylenediaminetetramethylenephosphonic acid [Sm-153-EDTMP]”, the maximum tolerated dose (tumor) is given as 1.0 mCi/kg, the lesion response [1, 3] is given as “lesion regression” and the survival [1, 3] is given as “improved survival”. The “long-lived impurities (Eu isotopes) in patients on multiple doses” value [1] was “increases with every treatment”, the “long-lived impurities (Eu isotopes) in patients on multiple doses” value ([1]; listed as HSA Sm-153-EDTMP) was “apparent” and the “residual activity detected in patients after decay of Sm-153” value [2] was “significant amounts of activity detected in patients, which increased with each dose given thereafter”.
